The values that follow are results of earlier work, collected in patent publication US20080286370A1, “Nanoscale Particles Used as Contrasting Agents in Magnetic Resonance Imaging” (priority 2005, published 2008).

The conditions of data set [1]: human, in vivo.
For data set [2] the following is noted: copper or zinc.
For data set [3] the following is noted: in vivo.

The structures appear in SMILES notation.

Regarding `O=C([O-])CN1CCN(CC(=O)[O-])CCN(CC(=O)O)CCN(CC(=O)[O-])CC1.[Gd+3]` [Gd-DOTA, gadoteric acid], in data set [1], the “adverse effect on vital parameters or renal function” value is on record as “absolutely no adverse effect”, the “patients who suffered from nausea” value is on record as 8, the “patients who suffered from vomiting” value was 5 and the pseudohypocalcaemia entry is on record as “has not caused pseudohypocalcaemia”. Also, in data set [1], the side-effect rate is listed as 0.84-0.97%; the systemic osmolality effects result is “negligible”; the “temperature, headaches, an unwell feeling, skin rash and an unpleasant taste in the mouth” value is listed as “less than 0.15%”; the “total rate of nausea and vomiting” value is 0.31%. The “exchange of gadolinium with endogenic metal ions” value in data set [2] is given as “less than 1%”. Moreover, in data set [3], the eliminated was 75% and the “passage through the blood/brain barrier” value was “do not pass through the blood/brain barrier”.
